{
  "source": "patent US20240043618A1",
  "about": "“ANTIMICROBIAL COMPOSITIONS” (priority 2021, published 2024)",
  "key": {"SARS-CoV-2": {"tested_on": "SARS-CoV-2", "assay_type": "cell-based", "conditions": "70% concentration, 30 min contact, 22 ± 2° C."}, "P. aeruginosa (gram−)": {"tested_on": "P. aeruginosa (gram−)", "conditions": "reported value of antibiotic; cited from earlier work"}, "B. subtilis (gram+)": {"tested_on": "B. subtilis (gram+)", "conditions": "reported value of antibiotic; cited from earlier work"}, "E. coli (gram−)": {"tested_on": "E. coli (gram−)", "conditions": "reported value of antibiotic; cited from earlier work"}, "S. aureus (gram+)": {"tested_on": "S. aureus (gram+)", "conditions": "reported value of antibiotic; cited from earlier work"}, "[1]": {"tested_on": "C. albicans fungal strain", "conditions": "reported value of antibiotic; cited from earlier work"}},
  "data": [
    {"compound": "CCO", "note": "[Ethanol]", "values": [
      {"measurement": "Toxicity (highest dilution of the endpoint titer where full (80-100%) cytotoxicity was observed)", "setting": "Vero E6 cells", "result": "None"},
      {"measurement": "Virus Titer", "setting": "SARS-CoV-2", "result": "<0.7 log10 CCID50 of virus per 0.1 mL"},
      {"measurement": "LRV (log reduction value)", "setting": "SARS-CoV-2; vs virus control 4.3", "result": ">3.6"}
    ]},
    {"compound": "gentamycin", "values": [
      {"measurement": "MIC", "setting": "P. aeruginosa (gram−)", "result": 4, "unit": "µg/mL"},
      {"measurement": "MIC", "setting": "B. subtilis (gram+)", "result": 4, "unit": "µg/mL"},
      {"measurement": "MIC", "setting": "E. coli (gram−)", "result": 8, "unit": "µg/mL"},
      {"measurement": "MIC", "setting": "S. aureus (gram+)", "result": 10, "unit": "µg/mL"},
      {"measurement": "MIC", "setting": "[1]", "result": 2.5, "unit": "µg/mL"}
    ]}
  ]
}
